# Experimental data reported in publication PMC8672434 (Journal of the American Chemical Society, 2021).
# Several values for one entry are separate records, joined by “and”; a condition that tells them apart may be missing. Equal entries are not always repeated. Where two headings read alike, the source gives them in different places.
# How the values were obtained:
# [1] = target: T1, SARS-CoV-2 M^pro (Severe acute respiratory syndrome coronavirus 2, UniProt P0DTD1); assay: Fast dilution experiment; assay type: biochemical; conditions: 10 μM M^pro pre-incubated with 10 μM compound for 2 h at 30 °C, diluted 100-fold; compared with DMSO control
# [2] = tested on: SARS-CoV-2; assay type: cell-based; conditions: read-out: Antiviral EC50 against SARS-CoV-2 in Vero E6 cells
# [3] = target: calpain I (Homo sapiens, UniProt P07384); assay: Host protease selectivity, FRET-based enzymatic assay: calpain I; assay type: biochemical
# [4] = target: cathepsin B (Homo sapiens, UniProt P07858); assay: Host protease selectivity, FRET-based enzymatic assay: cathepsin B; assay type: biochemical
# [5] = target: cathepsin K (Homo sapiens, UniProt P43235); assay: Host protease selectivity, FRET-based enzymatic assay: cathepsin K; assay type: biochemical
# [6] = target: cathepsin L (Homo sapiens, UniProt P07711); assay: Host protease selectivity, FRET-based enzymatic assay: cathepsin L; assay type: biochemical; conditions: for Inhibition of cathepsin L (in words): host protease selectivity
# [7] = target: caspase-3 (Homo sapiens, UniProt P42574); assay: Host protease selectivity, FRET-based enzymatic assay: caspase-3; assay type: biochemical; conditions: for Inhibition of caspase-3 (in words): host protease selectivity
# [8] = tested on: trypsin; assay: Host protease selectivity, FRET-based enzymatic assay: trypsin; assay type: biochemical
# [9] = tested on: Vero E6 cells
# [10] = tested on: Calu-3 cells
# [11] = target: T1, SARS-CoV-2 M^pro; assay type: binding; conditions: native mass spectrometry
# [12] = target: T1, SARS-CoV-2 M^pro; assay type: cell-based; conditions: read-out: FlipGFP M^pro assay EC50
# [13] = target: T1, SARS-CoV-2 M^pro; assay type: biochemical; conditions: read-out: SARS-CoV-2 M^pro IC50
# [14] = target: T1, SARS-CoV-2 M^pro; assay: Thermal shift-binding assay; conditions: result in words
# [15] = tested on: SARS-CoV-2; assay type: cell-based; conditions: read-out: Antiviral EC50 against SARS-CoV-2 in Calu-3 cells
# Chain of calpain I (P07384 whole entry): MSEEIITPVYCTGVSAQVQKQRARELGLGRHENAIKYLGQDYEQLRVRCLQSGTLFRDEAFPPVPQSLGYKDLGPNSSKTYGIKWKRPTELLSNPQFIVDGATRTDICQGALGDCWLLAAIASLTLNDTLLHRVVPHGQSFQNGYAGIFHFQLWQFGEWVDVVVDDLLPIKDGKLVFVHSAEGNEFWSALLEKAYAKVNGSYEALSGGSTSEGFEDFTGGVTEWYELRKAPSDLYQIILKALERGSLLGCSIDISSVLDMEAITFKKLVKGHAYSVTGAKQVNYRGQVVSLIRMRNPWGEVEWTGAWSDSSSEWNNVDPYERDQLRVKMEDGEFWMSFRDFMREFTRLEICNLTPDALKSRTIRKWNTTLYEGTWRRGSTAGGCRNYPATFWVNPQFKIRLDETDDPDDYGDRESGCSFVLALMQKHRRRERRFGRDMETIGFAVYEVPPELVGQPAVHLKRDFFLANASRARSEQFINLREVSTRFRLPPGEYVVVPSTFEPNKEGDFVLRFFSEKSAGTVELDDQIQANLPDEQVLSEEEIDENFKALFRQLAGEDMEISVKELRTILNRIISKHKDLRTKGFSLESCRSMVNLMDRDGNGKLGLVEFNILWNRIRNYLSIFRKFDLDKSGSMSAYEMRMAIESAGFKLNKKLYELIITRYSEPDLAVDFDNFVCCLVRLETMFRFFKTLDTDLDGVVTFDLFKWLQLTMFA
# Chain of calpain I (P04632 whole entry, further chain): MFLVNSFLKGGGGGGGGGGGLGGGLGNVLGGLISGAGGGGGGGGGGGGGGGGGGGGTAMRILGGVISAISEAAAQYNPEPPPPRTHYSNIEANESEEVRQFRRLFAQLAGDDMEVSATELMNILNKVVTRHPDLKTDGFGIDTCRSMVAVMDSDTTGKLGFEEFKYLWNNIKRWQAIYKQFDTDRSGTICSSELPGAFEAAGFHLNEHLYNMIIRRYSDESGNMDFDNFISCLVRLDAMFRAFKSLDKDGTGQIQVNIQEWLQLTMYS
# Chain of cathepsin L (P07711 114-333 limits assumed): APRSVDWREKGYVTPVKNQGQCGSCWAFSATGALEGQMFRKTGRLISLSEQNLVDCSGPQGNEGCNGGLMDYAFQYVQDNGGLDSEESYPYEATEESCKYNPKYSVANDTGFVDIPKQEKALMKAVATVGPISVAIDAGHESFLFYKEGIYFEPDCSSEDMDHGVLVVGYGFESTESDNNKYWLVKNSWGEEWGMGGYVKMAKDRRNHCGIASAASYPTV
# Chain of caspase-3 (P42574 29-175): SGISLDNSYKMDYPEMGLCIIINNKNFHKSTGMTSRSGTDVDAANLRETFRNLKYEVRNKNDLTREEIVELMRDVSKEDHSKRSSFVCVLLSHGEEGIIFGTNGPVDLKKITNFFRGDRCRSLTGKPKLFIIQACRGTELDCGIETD
# Chain of caspase-3 (P42574 176-277): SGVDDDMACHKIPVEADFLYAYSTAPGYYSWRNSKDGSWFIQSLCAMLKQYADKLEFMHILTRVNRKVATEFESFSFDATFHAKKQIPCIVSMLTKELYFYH
# Chain of cathepsin K (P43235 115-329): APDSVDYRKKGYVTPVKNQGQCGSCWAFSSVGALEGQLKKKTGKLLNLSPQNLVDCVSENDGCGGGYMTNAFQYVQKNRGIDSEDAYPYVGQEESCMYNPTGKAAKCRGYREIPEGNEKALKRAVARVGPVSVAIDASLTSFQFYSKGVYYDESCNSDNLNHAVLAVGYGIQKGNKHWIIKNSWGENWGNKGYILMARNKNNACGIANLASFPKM
structure (smiles),measurement,setting,value
C[C@H](NC(=O)[C@@H](c1cccnc1)N(C(=O)c1ccco1)c1ccc(-c2ccccc2)cc1)c1ccccc1 [23R],Recovered enzymatic activity after 100-fold dilution,[1],nearly complete recovery of enzymatic activity
"CC(C)C[C@H](NC(=O)OCc1ccccc1)C(=O)N[C@@H](CC1CCNC1=O)C(O)S(=O)(=O)[O-].[Na+] (stereo partly drawn) [GC-376, reference compound]",EC50,[2],1.51 µM
same,Inhibition of calpain I (in words),[3],potent inhibition
same,Inhibition of cathepsin B (in words),[4],potent inhibition
same,Inhibition of cathepsin K (in words),[5],potent inhibition
same,Inhibition of cathepsin L (in words),[6],potent inhibition
same,IC50,"[7]; read-out: Caspase-3 IC50, FRET-based enzymatic assay",> 20 µM
CC#CC(=O)N(c1ccc(-c2ccccc2)cc1)C(C(=O)N[C@@H](C)c1ccccc1)c1cccnc1 (stereo partly drawn) [Jun9-62-1],CC50,[9],18 µM
same,CC50,[10],47.8 µM
C[C@H](NC(=O)[C@@H](c1cccnc1)N(C(=O)C(Cl)Cl)c1ccc(-c2ccccc2)cc1)c1ccccc1 [Jun9-62-2R],Mass modification of M^pro (covalent adduct),[11],482 Da
same,EC50,[12],0.96 µM
same,EC50,[2],0.9 µM
same,Inhibition of calpain I (in words),[3],did not show potent inhibition
same,Inhibition of cathepsin B (in words),[4],did not show potent inhibition
same,Inhibition of cathepsin K (in words),[5],did not show potent inhibition
same,Inhibition of cathepsin L (in words),[6],did not show potent inhibition
same,Inhibition of caspase-3 (in words),[7],did not show potent inhibition
same,Inhibition of trypsin (in words),[8],did not show potent inhibition
C[C@H](NC(=O)[C@H](c1cccnc1)N(C(=O)C(Cl)Cl)c1ccc(-c2ccccc2)cc1)c1ccccc1 [Jun9-62-2S],IC50,[13],> 20 µM
C[C@H](NC(=O)[C@@H](c1cccnc1)N(C(=O)C(Br)(Br)Br)c1ccc(-c2ccccc2)cc1)c1ccccc1 [Jun9-88-6R],Tm shift of SARS-CoV-2 M^pro upon binding,[14],stabilized
same,Mass modification of M^pro (covalent adduct),[11],526 Da
same,EC50,[2],0.58 µM
same,Inhibition of calpain I (in words),[3],did not show potent inhibition
same,Inhibition of cathepsin B (in words),[4],did not show potent inhibition
same,Inhibition of cathepsin K (in words),[5],did not show potent inhibition
same,Inhibition of cathepsin L (in words),[6],did not show potent inhibition
same,IC50,"[6]; read-out: Cathepsin L IC50, FRET-based enzymatic assay",7.37 µM
same,Inhibition of caspase-3 (in words),[7],did not show potent inhibition
same,CC50,[9],5.48 µM
C[C@H](NC(=O)[C@H](c1cccnc1)N(C(=O)C(Br)(Br)Br)c1ccc(-c2ccccc2)cc1)c1ccccc1 [Jun9-88-6S],CC50,[9],5.99 µM
C[C@H](NC(=O)[C@@H](c1cccnc1)N(C(=O)C(Br)Br)c1ccc(-c2ccccc2)cc1)c1ccccc1 [Jun9-89-2R],IC50,[13]; FRET-based enzymatic assay,0.08 µM
same,Mass modification of M^pro (covalent adduct),[11],526 Da
same,CC50,[9],8.94 µM
C[C@H](NC(=O)[C@H](c1cccnc1)N(C(=O)C(Br)Br)c1ccc(-c2ccccc2)cc1)c1ccccc1 [Jun9-89-2S],IC50,[13]; FRET-based enzymatic assay,2.44 µM
same,CC50,[9],4.57 µM
C[C@H](NC(=O)C(c1cccnc1)N(C(=O)C(Cl)(Cl)Br)c1ccc(-c2ccccc2)cc1)c1ccccc1 (stereo partly drawn) [Jun9-89-3],CC50,[9],32.4 µM
C[C@H](NC(=O)[C@@H](c1cccnc1)N(C(=O)C(Cl)(Br)Br)c1ccc(-c2ccccc2)cc1)c1ccccc1 [Jun9-89-4R],Mass modification of M^pro (covalent adduct),[11],481 Da and 561 Da
same,CC50,[9],8.41 µM
C[C@H](NC(=O)[C@@H](c1cccnc1)N(C(=O)C(Cl)Cl)c1ccc(-c2ccccc2)cc1)c1ccc(Br)cc1 [Jun9-90-3R],Tm shift of SARS-CoV-2 M^pro upon binding,[14],stabilized
same,EC50,[2],2.07 µM
same,EC50,[15],2 µM
C[C@H](NC(=O)[C@H](c1cccnc1)N(C(=O)C(Cl)Cl)c1ccc(-c2ccccc2)cc1)c1ccc(Br)cc1 [Jun9-90-3S],IC50,[13],> 20 µM
C[C@@H](CCc1ccccc1)NC(=O)[C@@H](c1cccnc1)N(C(=O)C(Cl)Cl)c1ccc(-c2ccccc2)cc1 [Jun9-90-4R],Tm shift of SARS-CoV-2 M^pro upon binding,[14],stabilized
same,EC50,[2],1.1 µM
